From patent US7138361B2, “Herbicidal heterocycles” (E. I. du Pont de Nemours and Company, priority 2000, dated 2006)

What was measured:
Assay in all cases: Test D greenhouse paddy-water test in rice
Assay type in all cases: in vivo
Conditions in all cases: 500 g/ha alone, 21 days, 0-100 scale
[1] = tested on: Alisma plantago-aquatica (Ap)
Excerpt: (§1) Four plastic pots (ca. 16-cm diameter) per rate were partially filled with sterilized Tama silt loam soil comprised of a 35:50:15 ratio of sand, silt and clay and 2.6% organic matter. Separate plantings for each of the four pots were as follows. Seeds from the U.S. of Heteranthera limosa (Hl), Monochoria vaginalis (Mv), Ammania auriculata (Aa), and Sphenoclea zeylanica (Sz) were planted into one 16-cm pot for each rate. Seeds from the U.S. of Cyperus iria (Ci), Leptochloa fascicularis (Li), one stand of 9 or 10 direct-seeded rice seedlings (Oryza saliva cv. ‘Japonica—M202’; Oss), and one stand of 6 transplanted rice seedlings (Oryza sativa cv. ‘Japonica—M202’; Ost) were planted into one 16-cm pot for each rate. Seeds from the U.S. of Cyperus difformis (Cd), Alisma plantago-aquatica (Ap), and Scirpus mucronatus (Sm) were planted into one 16-cm pot for each rate. Seeds from the U.S. of Echinochloa crus-galli (Ecg), Echinochloa oryzicola (Eor), Echinochloa oryzoides (Eoz) and Echinochloa colonum (Ecc) were planted into one 16-cm pot for each rate. Plantings were sequential so that crop and weed species were at the 2.0 to 2.5-leaf stage at time of treatment.
(§2) Potted plants were grown in a greenhouse with day/night temperature settings of 29.5/26.7° C., and supplemental balanced lighting was provided to maintain a 16-hour photoperiod. Test pots were maintained in the greenhouse until test completion.
(§3) Chemical treatments consisting of Compound 1 of Index Table A (Cmpd 1), daimuron (Cmpd D), quinoclamine (Cmpd Q) and combinations thereof were formulated in acetone. At time of treatment, test pots were flooded to 3 cm above the soil surface, treated by application of test compounds directly to the paddy water, and then maintained at that water depth for the duration of the test. Effects of treatments on rice and weeds were visually evaluated by comparison to untreated controls after 21 days. Plant response ratings are reported on a 0 to 100 scale; where 0 is no effect and 100 is complete control. ND means no data.
(§4) Colby's equation was used to calculate the expected additive herbicidal effect of the mixtures of Compound 1 with daimuron (Cmpd D) and quinoclamine (Cmpd Q). Colby's equation (Colby, S. R “Calculating Synergistic and Antagonistic Responses of Herbicide Combinations,” Weeds, 15(1), pp 20–22 (1967)) calculates the expected additive effect of herbicidal mixtures, and for two active ingredients is of the form: Pa+b=Pa+Pb−(PaPb/100) wherein Pa+b is the percentage effect of the mixture expected from additive contribution of the individual components, • Pa is the observed percentage effect of the first active ingredient at the same use rate as in the mixture, and • Pb is the observed percentage effect of the second active ingredient at the same use rate as in the mixture.

Ammania auriculata (Aa) = tested on: Ammania auriculata (Aa)
Excerpt: as §1, §2, §3, §4

Cyperus difformis (Cd) = tested on: Cyperus difformis (Cd)
Excerpt: as §1, §2, §3, §4

Cyperus iria (Ci) = tested on: Cyperus iria (Ci)
Excerpt: as §1, §2, §3, §4

[2] = tested on: Echinochloa colonum (Ecc)
Excerpt: as §1, §2, §3, §4

[3] = tested on: Echinochloa crus-galli (Ecg)
Excerpt: as §1, §2, §3, §4

[4] = tested on: Echinochloa oryzicola (Eor)
Excerpt: as §1, §2, §3, §4

[5] = tested on: Echinochloa oryzoides (Eoz)
Excerpt: as §1, §2, §3, §4

Heteranthera limosa (Hl) = tested on: Heteranthera limosa (Hl)
Excerpt: as §1, §2, §3, §4

[6] = tested on: Leptochloa fascicularis (Li)
Excerpt: as §1, §2, §3, §4

[7] = tested on: Monochoria vaginalis (Mv)
Excerpt: as §1, §2, §3, §4

[8] = tested on: Sphenoclea zeylanica (Sz)
Excerpt: as §1, §2, §3, §4

[9] = tested on: direct-seeded rice seedlings (Oryza saliva cv. 'Japonica—M202'; Oss)
Excerpt: as §1, §2, §3, §4

[10] = tested on: transplanted rice seedlings (Oryza sativa cv. 'Japonica—M202'; Ost)
Excerpt: as §1, §2, §3, §4

Scirpus mucronatus (Sm) = tested on: Scirpus mucronatus (Sm)
Excerpt: as §1, §2, §3, §4

Structure (SMILES): Cc1ccc(NC(=O)NC(C)(C)c2ccccc2)cc1 [daimuron, reference compound]
- Obs. (observed effect) Ap [1]: 0
- Obs. (observed effect) Aa (Ammania auriculata (Aa)): 0
- Obs. (observed effect) Cd (Cyperus difformis (Cd)): 60
- Obs. (observed effect) Ci (Cyperus iria (Ci)): 0
- Obs. (observed effect) Ecc [2]: 0
- Obs. (observed effect) Ecg [3]: 0
- Obs. (observed effect) Eor [4]: 0
- Obs. (observed effect) Eoz [5]: 0
- Obs. (observed effect) Hl (Heteranthera limosa (Hl)): 30
- Obs. (observed effect) Lf [6]: 0
- Obs. (observed effect) Mv [7]: 30
- Obs. (observed effect) Sz [8]: 20
- Obs. (observed effect) Oss [9]: 0
- Obs. (observed effect) Ost [10]: 0

Structure (SMILES): NC1=C(Cl)C(=O)c2ccccc2C1=O [quinoclamine, reference compound]
- Obs. (observed effect) Ap [1]: 60
- Obs. (observed effect) Aa (Ammania auriculata (Aa)): 0
- Obs. (observed effect) Cd (Cyperus difformis (Cd)): 35
- Obs. (observed effect) Ci (Cyperus iria (Ci)): 0
- Obs. (observed effect) Ecc [2]: 0
- Obs. (observed effect) Ecg [3]: 0
- Obs. (observed effect) Eor [4]: 30
- Obs. (observed effect) Eoz [5]: 0
- Obs. (observed effect) Hl (Heteranthera limosa (Hl)): 0
- Obs. (observed effect) Lf [6]: 0
- Obs. (observed effect) Mv [7]: 0
- Obs. (observed effect) Sm (Scirpus mucronatus (Sm)): 0
- Obs. (observed effect) Sz [8]: 0
- Obs. (observed effect) Oss [9]: 0
- Obs. (observed effect) Ost [10]: 0
